Values after ≈ are worked out from the molar mass of the structure shown.

Details in the first data set: not given
For `C#CC(C)(CC)OC(N)=O` (stereo not given), the solubility (as a rule, how much of the substance goes into solution per volume) is 113 mM (≈ 16000 µg/mL).

Regarding `CCCCOC(=O)C=Cc1ccccc1`, the solubility was 24.5 mM (≈ 5000 µg/mL).

In turn, `O=C(NCN1CCOCC1)c1cnccn1` gave a solubility of 1500 mM (≈ 333000 µg/mL).

Compound `C=C1C=CC(=O)O1` gave a solubility of 104 mM (≈ 10000 µg/mL).

Compound `COc1cc(O)c(C(=O)c2ccccc2)cc1S(=O)(=O)O` returned a solubility of 811 mM (≈ 250000 µg/mL).

Consider `CCOCCOC(=O)C=Cc1ccc(OC)cc1`, for which the solubility stood at 2 mM (≈ 500 µg/mL).

As for `O=C(O)CCC(=O)OOC(=O)CCC(=O)O`, the solubility was determined as 142 mM (≈ 33300 µg/mL).

Consider `OC[C@H]1O[C@@H](n2cnc3cncnc32)[C@H](O)[C@@H]1O`, for which the solubility turned out to be 396 mM (≈ 100000 µg/mL).

Still in this data set, the particulars now being: 22 °C.
On to `CC(=O)NCc1c(I)c(NC(C)=O)c(I)c(C(=O)O)c1I`, for which the solubility came to 4.78 mM (≈ 3000 µg/mL).

Still in this data set, the particulars now being: 25 °C.
With `O=Nc1c(O)ccc2ccccc12`, the solubility was 5.77 mM (≈ 1000 µg/mL).

For the compound `Nc1ccc(S(=O)(=O)Nc2ccnn2-c2ccccc2)cc1`, the solubility was determined as 4.77 mM (≈ 1500 µg/mL).

`CC(C)(C)CC(=O)OCC(=O)[C@@]12OC(C)(C)O[C@@H]1C[C@H]1[C@@H]3CCC4=CC(=O)C=C[C@]4(C)[C@@]3(F)[C@@H](O)C[C@@]12C`: the solubility was 0.00751 mM (≈ 4 µg/mL).

`NCCNc1cccc2ccccc12` came in with a solubility of 10.7 mM (≈ 2000 µg/mL).

In the case of `O=C(N/N=C/c1ccccc1O)c1ccncc1`, the solubility amounted to 0.207 mM (≈ 50 µg/mL).

Take `O=NN(CCCl)C(=O)NCCCl`: the solubility turned out to be 18.7 mM (≈ 4000 µg/mL).
